Reference: patent publication US10543223B2, “Mannose derivatives useful for treating pathologies associated with adherent E. coli” (ENTEROME, priority 2015, dated 2020)
Where “and” joins values, the source holds several entries; their conditions need not be identical. Identical values can stand only once. Like-named read-outs stand apart in the source and are kept apart here.

Tests used:
[1] = test system: uropathogenic E. coli strain UTI89; assay: Hemagglutination inhibition assay, guinea pig erythrocytes, E. coli strain UTI89; assay type: cell-based; settings: Escherichia coli, read-out: MIC of haemagglutination
Procedure: (§1) Interaction of E. coli FimH adhesins with the glycocalyx of guinea pig erythrocytes forms a crosslinked network in the wells. Glycoconjugates, added in a 2-fold dilution series, prevent the agglutination reaction. The inhibition titer is defined as the lowest concentration of the glycoconjugate at which hemagglutination is still inhibited. Several strains of E. coli were grown statically overnight in LB at 37° C., washed three times in ice-cold phosphate-buffered saline, and redissolved. A 2-fold dilution of glycoconjugates with a starting concentration of 1 mM was prepared in 25 μL of PBS with 10% of DMSO. Importantly, the pipet tip was changed at every dilution step to avoid carry-over. Next, the bacterial solution (25 μL) was added to the 2-fold dilution series of the compound. Finally, 50 μL of guinea pig red blood cells, washed and diluted in the buffer to 5% of the blood volume, was added to reach 100 μL. The plates were left on ice for one night before read-out.
Inhibition of E. coli Strain UTI89 Isolated from Patient with Urinary Tract Infection.
(§2) The anti-adhesive capacity of the inhibitors was evaluated against ten E. coli strains isolated from CD patients, urinary tract infections, and hip prosthesis infections.

[2] = Faeces concentrations and recovery after IV and PO administration to rats; assay type: in vivo, Sprague Dawley rats; settings: 0-24 h; for dose excreted: Sprague Dawley, rat, faeces
Procedure: Plasma and faeces concentrations after administration of Compound 1b and for compound 13 of WO 2014/016361 at 1 mg/kg by intravenous route and 10 mg/kg by oral route to Sprague Dawley rats Blank rat faeces are homogenized with 3 volumes of UHQ water until obtention of a paste. Then 100 μL of the homogenate are spiked with the molecules and precipitated with 300 μL of acetonitrile. The concentration ranges tested are: • 0.5 ng/mL to 1000 ng/mL for plasma, • 4 to 2000 ng/g for faeces, corresponding to 1 to 500 ng/mL of faeces homogenate. 3. In-Life Part After administration, the animals are placed in individual metabolic cages in order to collect faeces samples during 24 hours. Faeces samples are collected over the 24 hours of the experiment. They are precisely weighed and 3 volumes of UHQ water are added. The mixture is homogeneized until obtention of a paste. Then 100 μL of the homogenate are taken and extracted with 300 μL of Acetonitrile. Analysis is performed using LC-MS/MS determination according to previous analytical test results.

LF82 = assay: Hemagglutination inhibition assay, guinea pig erythrocytes, E. coli strain LF82; assay type: cell-based; settings: Escherichia coli, read-out: MIC of haemagglutination
Procedure: as §1, §2

[3] = Plasma concentrations and pharmacokinetics after IV and PO administration to rats; assay type: in vivo, Sprague Dawley rats; settings: for % AUCextra / AUC(0-inf) / AUC(0-t) / Cmax / Tmax: DMSO, based on mean data
Procedure: Plasma and faeces concentrations after administration of Compound 1b and for compound 13 of WO 2014/016361 at 1 mg/kg by intravenous route and 10 mg/kg by oral route to Sprague Dawley rats
At least 8 point calibration standards are run using standard conditions which consist to LC-MS/MS system with C18 column after precipitation of proteins with acetonitrile before the start of the analytical test.
For the plasma, 100 μL of blank rat plasma are directly spiked with the compounds before being precipitate with 300 μL of acetonitrile.
The concentration ranges tested are: • 0.5 ng/mL to 1000 ng/mL for plasma, • 4 to 2000 ng/g for faeces, corresponding to 1 to 500 ng/mL of faeces homogenate. 3. In-Life Part
12 male Sprague Dawley rats around 6-7 week old are used.
At prescribed times, blood is collected. Animals are briefly anaesthetised with Isoflurane® using an anaesthetic system (Équipement Vétérinaire Minerve) during blood samplings.
Blood samples are centrifuged at 2500 rpm at +4° C. (between 0 and 9° C.), the plasma is removed and placed into labelled polypropylene tubes. Individual plasma samples are stored frozen at −20° C. (target temperature) until analysis.
100 μL of the plasma sample are taken and 300 μL of acetonitrile are added. After protein precipitation, analysis is performed using LC-MS/MS determination according to previous analytical test results.
Concentrations of the samples are calculated directly from chromatograms after automatic integration by Analyst® 1.5.1 and expressed as ng/mL.
Mean plasma concentrations are calculated (when calculable, i.e. n≥2) using individual concentration and are expressed with the corresponding standard deviation value and variation coefficient (when calculable, i.e. n≥3), with
[formula] The individual plasma concentrations are tabulated for each rat and scheduled sampling time. Concentrations below the LLOQ are indicated by BLQ. All BLQ concentrations are substituted by zero for calculation of the descriptive statistics of the concentrations. 5. Results Estimation of pharmacokinetics parameters is performed using Kinetica® (Version 4.3—Thermo Electron Corporation—Philadelphia—USA). It was performed by using a one-compartment model approach, which considers the body as a single compartment in which the concentration is homogeneous. The following parameters are estimated: Cmax (ng/mL): maximal plasma concentration Tmax (h): first time to reach Cmax AUCt (ng/mL*h): area under the plasma concentration-time curve from administration up to the last quantifiable concentration at time t
[formula] “BLQ” stands for “Below the Limit of Quantification” ([…] for plasma). Compound 1b

[4] = IV 1 mg/kg, individual rats IV1-IV3, 1 mg/kg
[5] = PO 10 mg/kg, individual rats PO4-PO6, 10 mg/kg
[6] = male, Sprague Dawley, rat, plasma, IV 1 mg/kg
[7] = male, Sprague Dawley, rat, plasma, PO 10 mg/kg

With Cc1nc(-c2cnccn2)sc1C(=O)c1cnc(C[C@H]2O[C@H](CO)[C@@H](O)[C@H](O)[C@@H]2O)s1 [Compound 1b, 5-(4-methyl-2-(pyrazin-2-yl)thiazole-5-carbonyl) 2-((-α-D-mannopyranos-1-yl)methyl)thiazole] the MIC [1] was 6 µM, the Faeces concentration [2, 4] was 3557 ng/g and 6433 ng/g and 2274 ng/g and the “Faeces concentration (homogenate)” value [2, 4] was 889 ng/mL and 1608 ng/mL and 569 ng/mL. For the same molecule, the Recovery in faeces [2, 4] was 9.2% and 6.8%, the “Total amount of compound in faeces” value [2, 4] was 25318 ng and 22175 ng and 19840 ng and the “Faeces concentration (homogenate), mean” value ([2]; IV 1 mg/kg, mean of 3 rats) was 1022 ng/mL. The “Faeces concentration, mean” value ([2]; IV 1 mg/kg, mean of 3 rats) was 4088 ng/g, the “Total amount of compound in faeces, mean” value ([2]; IV 1 mg/kg, mean of 3 rats) was 22445 ng and the Faeces concentration [2, 5] was 146214 ng/g and 115495 ng/g and 146982 ng/g. For the same molecule, the “Faeces concentration (homogenate)” value [2, 5] was 36553 ng/mL and 28874 ng/mL and 36745 ng/mL, the Recovery in faeces [2, 5] was 41.6% and 45.1% and the “Total amount of compound in faeces” value [2, 5] was 1335427 ng and 1081683 ng and 1171915 ng. For the same molecule, the “Faeces concentration (homogenate), mean” value ([2]; PO 10 mg/kg, mean of 3 rats) was 34058 ng/mL, the “Faeces concentration, mean” value ([2]; PO 10 mg/kg, mean of 3 rats) was 136230 ng/g and the “Total amount of compound in faeces, mean” value ([2]; PO 10 mg/kg, mean of 3 rats) was 1196341 ng. It also gave a dose excreted ([2]; iv, 1 mg/kg, IV 1 mg/kg, individual rats IV1-IV3, read-out: Recovery in faeces) of 10.5%, a dose excreted ([2]; iv, 1 mg/kg, IV 1 mg/kg, mean of 3 rats, read-out: Recovery in faeces, mean) of 8.9% and a dose excreted ([2]; po, 10 mg/kg, PO 10 mg/kg, individual rats PO4-PO6, read-out: Recovery in faeces) of 55.6%. For the same molecule, the dose excreted ([2]; po, 10 mg/kg, PO 10 mg/kg, mean of 3 rats, read-out: Recovery in faeces, mean (quantity found in faeces out of the administered quantity)) was 47.4%, the MIC (LF82) was 0.024 µM and the Plasma concentration ([3]; IV 1 mg/kg, 0.083 h, individual rats IV1-IV3, 1 mg/kg) was 470.2 ng/mL and 908.7 ng/mL. For the same molecule, the Plasma concentration ([3]; IV 1 mg/kg, 0.5 h, individual rats IV1-IV3, 1 mg/kg) was 108.2 ng/mL and 66.5 ng/mL, the Plasma concentration ([3]; IV 1 mg/kg, 2 h, individual rats IV1-IV3, 1 mg/kg) was “BLQ” and the Plasma concentration ([3]; IV 1 mg/kg, 6 h, individual rats IV1-IV3) was “BLQ”. The Plasma concentration ([3]; IV 1 mg/kg, 24 h, individual rats IV1-IV3) was “BLQ”, the “% AUCextra” value ([3]; IV 1 mg/kg) was 0.35% and the Plasma concentration ([3]; PO 10 mg/kg, 0.5 h, individual rats PO4-PO6, 10 mg/kg) was 8.1 ng/mL and 6.5 ng/mL. For the same molecule, the Plasma concentration ([3]; PO 10 mg/kg, 1 h, individual rats PO4-PO6, 10 mg/kg) was 6.5 ng/mL and BLQ, the Plasma concentration ([3]; PO 10 mg/kg, 2 h, individual rats PO4-PO6, 10 mg/kg) was “BLQ and 5.2 ng/mL” and the Plasma concentration ([3]; PO 10 mg/kg, 6 h, individual rats PO4-PO6) was “BLQ”. The Plasma concentration ([3]; PO 10 mg/kg, 24 h, individual rats PO4-PO6) was “BLQ”, the “% AUCextra” value ([3]; PO 10 mg/kg) was 53.8% and the concentration at 0.083 h ([3]; male, Sprague Dawley, rat, plasma, iv, 1 mg/kg, IV 1 mg/kg, 0.083 h, individual rats IV1-IV3, read-out: Plasma concentration) was 573 ng/mL. For the same molecule, the concentration at 0.083 h ([3]; male, Sprague Dawley, rat, plasma, iv, 1 mg/kg, IV 1 mg/kg, 0.083 h, mean of 3 rats (BLQ = 0), read-out: Plasma concentration, mean) was 650 ng/mL, the concentration at 0.5 h ([3]; male, Sprague Dawley, rat, plasma, iv, 1 mg/kg, IV 1 mg/kg, 0.5 h, individual rats IV1-IV3, read-out: Plasma concentration) was 59.6 ng/mL and the concentration at 0.5 h ([3]; male, Sprague Dawley, rat, plasma, iv, 1 mg/kg, IV 1 mg/kg, 0.5 h, mean of 3 rats (BLQ = 0), read-out: Plasma concentration, mean) was 78.1 ng/mL. It also gave a concentration at 2 h ([3]; male, Sprague Dawley, rat, plasma, iv, 1 mg/kg, IV 1 mg/kg, 2 h, individual rats IV1-IV3, read-out: Plasma concentration) of 7.7 ng/mL, a concentration at 2 h ([3]; male, Sprague Dawley, rat, plasma, iv, 1 mg/kg, IV 1 mg/kg, 2 h, mean of 3 rats (BLQ = 0), read-out: Plasma concentration, mean) of 2.6 ng/mL and a concentration at 6 h ([3]; male, Sprague Dawley, rat, plasma, iv, 1 mg/kg, IV 1 mg/kg, 6 h, mean of 3 rats (BLQ = 0), read-out: Plasma concentration, mean) of 0 ng/mL. It also gave a concentration at 24 h ([3]; male, Sprague Dawley, rat, plasma, iv, 1 mg/kg, IV 1 mg/kg, 24 h, mean of 3 rats (BLQ = 0)) of 0 ng/mL, a concentration at 0.5 h ([3]; male, Sprague Dawley, rat, plasma, po, 10 mg/kg, PO 10 mg/kg, 0.5 h, individual rats PO4-PO6, read-out: Plasma concentration) of 6.7 ng/mL and a concentration at 0.5 h ([3]; male, Sprague Dawley, rat, plasma, po, 10 mg/kg, PO 10 mg/kg, 0.5 h, mean of 3 rats (BLQ = 0), read-out: Plasma concentration, mean) of 7.1 ng/mL. The concentration at 1 h ([3]; male, Sprague Dawley, rat, plasma, po, 10 mg/kg, PO 10 mg/kg, 1 h, individual rats PO4-PO6, read-out: Plasma concentration) was 5.5 ng/mL, the concentration at 1 h ([3]; male, Sprague Dawley, rat, plasma, po, 10 mg/kg, PO 10 mg/kg, 1 h, mean of 3 rats (BLQ = 0), read-out: Plasma concentration, mean) was 4 ng/mL and the concentration at 2 h ([3]; male, Sprague Dawley, rat, plasma, po, 10 mg/kg, PO 10 mg/kg, 2 h, individual rats PO4-PO6, read-out: Plasma concentration) was 6 ng/mL. For the same molecule, the concentration at 2 h ([3]; male, Sprague Dawley, rat, plasma, po, 10 mg/kg, PO 10 mg/kg, 2 h, mean of 3 rats (BLQ = 0), read-out: Plasma concentration, mean) was 3.7 ng/mL, the concentration at 6 h ([3]; male, Sprague Dawley, rat, plasma, po, 10 mg/kg, PO 10 mg/kg, 6 h, mean of 3 rats (BLQ = 0), read-out: Plasma concentration, mean) was 0 ng/mL and the concentration at 24 h ([3]; male, Sprague Dawley, rat, plasma, po, 10 mg/kg, PO 10 mg/kg, 24 h, mean of 3 rats (BLQ = 0)) was 0 ng/mL. The AUC(0-inf) [3, 6] was 267 ng·h/mL, the AUC(0-t) [3, 6] was 266 ng·h/mL and the Cmax [3, 6] was 651 ng/mL. The Tmax [3, 6] was 4.8 min, the bioavailability ([3]; male, Sprague Dawley, rat, plasma, PO 10 mg/kg vs IV 1 mg/kg, calculated based on AUCt, read-out: F (bioavailability)) was 0.3% and the AUC(0-t) [3, 7] was 8 ng·h/mL. It also gave a Cmax [3, 7] of 7.07 ng/mL, a Tmax [3, 7] of 30 min and an AUC(0-inf) ([3]; male, Sprague Dawley, rat, plasma, PO 10 mg/kg, % AUC extra >20%: value given for indication) of 18.2 ng·h/mL.
